# Literature values in patent US20230158084A1, “PROBIOTICS, METABOLITES, AND USES THEREOF” (California Institute of Technology, priority 2018, published 2023).
# Conditions: adult mice; cited from earlier work
smiles,measurement,value
C1=NCCCC1 [1-piperideine],conversion to 5AV in the brain,rapidly converted to 5AV
same,entry into the brain,can enter the brain
